# Columns and labels:
# [1] = test system: Acinetobacter phenon 6/ct 13TU (Acinetobacter sp.); experiment: Antimicrobial activity against imipenem and meropenem-resistant Acinetobacter phenon 6/ct 13TU isolate PU86 by CLSI agar dilution method
# Acinetobacter baumannii [2] = experiment: Antimicrobial activity against imipenem and meropenem-resistant Acinetobacter baumannii isolate BJ3-9 by CLSI agar dilution method; format: functional
# [3] = test system: Acinetobacter genospecies 3; experiment: Antimicrobial activity against imipenem and meropenem-resistant Acinetobacter genospecies 3 isolate PUA7 by CLSI agar dilution method
# [4] = test system: Acinetobacter genospecies 13TU; experiment: Antimicrobial activity against imipenem and meropenem-resistant Acinetobacter genospecies 13TU isolate CY6 by CLSI agar dilution method
# Acinetobacter baumannii [5] = experiment: Antimicrobial activity against imipenem and meropenem-resistant Acinetobacter baumannii isolate CY7 by CLSI agar dilution method; format: functional
# Acinetobacter baumannii [6] = experiment: Antimicrobial activity against imipenem and meropenem-resistant Acinetobacter baumannii isolate ZJ32 by CLSI agar dilution method; format: functional
# [7] = test system: Acinetobacter genospecies 3 (Acinetobacter genomosp. 3); experiment: Antimicrobial activity against imipenem and meropenem-resistant Acinetobacter genospecies 3 isolate PU78 by CLSI agar dilution method; conditions: Acinetobacter genospecies 3, isolate PU78
# Acinetobacter baumannii [8] = experiment: Antimicrobial activity against imipenem and meropenem-resistant Acinetobacter baumannii isolate DL34 by CLSI agar dilution method; format: functional
# [9] = test system: Acinetobacter phenon 6/ct 13TU; experiment: Antimicrobial activity against imipenem and meropenem-resistant Acinetobacter phenon 6/ct 13TU isolate FZ4A18 by CLSI agar dilution method
# Acinetobacter baumannii [10] = experiment: Antimicrobial activity against imipenem and meropenem-resistant Acinetobacter baumannii isolate ZJ58 by CLSI agar dilution method; format: functional
# Acinetobacter baumannii [11] = experiment: Antimicrobial activity against imipenem and meropenem-resistant Acinetobacter baumannii isolate BJ55 by CLSI agar dilution method; format: functional
# Acinetobacter baumannii [12] = experiment: Antimicrobial activity against imipenem and meropenem-resistant Acinetobacter baumannii isolate BJ52 by CLSI agar dilution method; format: functional
# Acinetobacter baumannii [13] = experiment: Antimicrobial activity against imipenem and meropenem-resistant Acinetobacter baumannii isolate PU73 by CLSI agar dilution method; format: functional
# Acinetobacter phenon 5 = experiment: Antimicrobial activity against imipenem and meropenem-resistant Acinetobacter phenon 5 isolate PUA6 by CLSI agar dilution method
# Acinetobacter baumannii [14] = experiment: Antimicrobial activity against imipenem and meropenem-resistant Acinetobacter baumannii isolate PU4A1 by CLSI agar dilution method; format: functional
# Acinetobacter baumannii [15] = experiment: Antimicrobial activity against imipenem and meropenem-resistant Acinetobacter baumannii isolate PUA1 by CLSI agar dilution method; format: functional
# Acinetobacter baumannii [16] = experiment: Antimicrobial activity against imipenem and meropenem-resistant Acinetobacter baumannii isolate FW-F1 by CLSI agar dilution method; format: functional
# [17] = test system: Acinetobacter genospecies 10/11; experiment: Antimicrobial activity against imipenem and meropenem-resistant Acinetobacter genospecies 10/11 isolate ZS5 by CLSI agar dilution method
# Acinetobacter baumannii [18] = experiment: Antimicrobial activity against imipenem and meropenem-resistant Acinetobacter baumannii isolate FZ84 by CLSI agar dilution method; format: functional
# Acinetobacter baumannii [19] = experiment: Antimicrobial activity against imipenem and meropenem-resistant Acinetobacter baumannii isolate PU4A22 by CLSI agar dilution method; format: functional
# Acinetobacter baumannii [20] = experiment: Antimicrobial activity against imipenem and meropenem-resistant Acinetobacter baumannii isolate BJ3-23 by CLSI agar dilution method; format: functional
# Acinetobacter baumannii [21] = experiment: Antimicrobial activity against imipenem and meropenem-resistant Acinetobacter baumannii isolate ZJ36 by CLSI agar dilution method; format: functional
# Acinetobacter baumannii [22] = experiment: Antimicrobial activity against imipenem and meropenem-resistant Acinetobacter baumannii isolate NJ59 by CLSI agar dilution method; format: functional
# Acinetobacter baumannii [23] = experiment: Antimicrobial activity against imipenem and meropenem-resistant Acinetobacter baumannii isolate JN45 by CLSI agar dilution method; format: functional
# [24] = test system: Acinetobacter genospecies 10/11; experiment: Antimicrobial activity against imipenem and meropenem-resistant Acinetobacter genospecies 10/11 isolate ZS15 by CLSI agar dilution method
# Acinetobacter baumannii [25] = experiment: Antimicrobial activity against imipenem and meropenem-resistant Acinetobacter baumannii isolate ZJ49 by CLSI agar dilution method; format: functional
SMILES,MIC [1] [µg/mL],MIC (Acinetobacter baumannii [2]) [µg/mL],MIC [3] [µg/mL],MIC [4] [µg/mL],MIC (Acinetobacter baumannii [5]) [µg/mL],MIC (Acinetobacter baumannii [6]) [µg/mL],MIC [7] [µg/mL],MIC [9] [µg/mL],MIC (Acinetobacter baumannii [10]) [µg/mL],MIC (Acinetobacter baumannii [11]) [µg/mL],MIC (Acinetobacter baumannii [13]) [µg/mL],MIC (Acinetobacter phenon 5) [µg/mL],MIC (Acinetobacter baumannii [14]) [µg/mL],MIC (Acinetobacter baumannii [15]) [µg/mL],MIC (Acinetobacter baumannii [16]) [µg/mL],MIC [17] [µg/mL],MIC (Acinetobacter baumannii [18]) [µg/mL],MIC (Acinetobacter baumannii [19]) [µg/mL],MIC (Acinetobacter baumannii [20]) [µg/mL],MIC (Acinetobacter baumannii [21]) [µg/mL],further results
NCC[C@H](O)C(=O)N[C@@H]1C[C@H](N)[C@@H](O[C@H]2O[C@H](CN)[C@@H](O)[C@H](O)[C@H]2O)[C@H](O)[C@H]1O[C@H]1O[C@H](CO)[C@@H](O)[C@H](N)[C@H]1O [AMIKACIN],4,> 256,4,32,> 256,> 256,1,32,64,> 256,> 256,2,> 256,8,> 256,> 256,> 256,128,> 256,2,MIC (Acinetobacter baumannii [8]): > 256 µg/mL; MIC (Acinetobacter baumannii [12]): 2 µg/mL; MIC (Acinetobacter baumannii [22]): > 256 µg/mL; MIC (Acinetobacter baumannii [23]): 128 µg/mL; MIC [24]: 256 µg/mL; MIC (Acinetobacter baumannii [25]): 256 µg/mL
CC(C)(O/N=C(\C(=O)N[C@@H]1C(=O)N2C(C(=O)[O-])=C(C[n+]3ccccc3)CS[C@H]12)c1csc(N)n1)C(=O)O [CEFTAZIDIME],> 256,8,> 256,> 256,> 256,64,4,> 256,16,> 256,> 256,> 256,> 256,> 256,> 256,> 256,> 256,> 256,> 256,16,MIC (Acinetobacter baumannii [8]): 64 µg/mL; MIC (Acinetobacter baumannii [12]): 16 µg/mL; MIC (Acinetobacter baumannii [22]): > 256 µg/mL; MIC (Acinetobacter baumannii [23]): > 256 µg/mL; MIC [24]: 16 µg/mL; MIC (Acinetobacter baumannii [25]): 32 µg/mL
C[C@@H](O)[C@H]1C(=O)N2C(C(=O)O)=C(SCCNC=N)C[C@H]12 [IMIPENEM ANHYDROUS],16,64,16,32,64,64,16,16,16,32,64,64,64,64,64,64,16,64,64,16,MIC (Acinetobacter baumannii [8]): 32 µg/mL; MIC (Acinetobacter baumannii [12]): 32 µg/mL; MIC (Acinetobacter baumannii [22]): 16 µg/mL; MIC (Acinetobacter baumannii [23]): 32 µg/mL; MIC [24]: 64 µg/mL; MIC (Acinetobacter baumannii [25]): 32 µg/mL
C[C@H]1COc2c(N3CCN(C)CC3)c(F)cc3c(=O)c(C(=O)O)cn1c23.C[C@H]1COc2c(N3CCN(C)CC3)c(F)cc3c(=O)c(C(=O)O)cn1c23.O [LEVOFLOXACIN],0.125,4,0.06,0.12,> 32,16,0.125,0.12,> 32,16,16,0.06,4,16,4,> 32,> 32,4,4,4,MIC (Acinetobacter baumannii [23]): 0.5 µg/mL; MIC [24]: 4 µg/mL; MIC (Acinetobacter baumannii [25]): 4 µg/mL

# Source: ChEMBL document CHEMBL1137659, “Molecular epidemiology of clinical isolates of carbapenem-resistant Acinetobacter spp. from Chinese hospitals” (2007)
